Data as given in paper PMC9598282 (Antibiotics, 2022).
Read-outs that look alike come from different tables or passages of the source.

How the values were obtained:
Experiment in all cases: microbe, parasite or virus in culture
A. baumannii ATCC 17978 = format: cell-based, Acinetobacter baumannii; conditions: for MIC: Acinetobacter baumannii, ATCC17978, 18 h, read-out: MIC alone
Experimental: (§1) The adjuvant properties of the guanidinylated polymyxins were evaluated using the checkerboard assay as previously described. The bacterial solution was prepared as described in the antimicrobial susceptibility assay. The antibiotic of interest and the adjuvant were serially diluted two-fold along the x- and y-axis on a 96-well plate, respectively, resulting in varying concentrations of both agents in each well. Equal volumes of bacterial solution were added to the designated wells. The well consisting of bacterial solution served as the positive control, while the wells containing only media served as the negative control. The plate was then incubated at 37 °C for 18 h. After incubation, an Emax Plus microplate reader (Molecular Devices, Union City, CA, USA) was used to measure the OD at a wavelength of 590 nm to confirm the turbidity. The fractional inhibitory concentration (FIC) index was then determined to establish the relationship between the antibiotic and adjuvant. The FIC index corresponds to the sum of the FICs of the antibiotic and adjuvant. The FIC of each agent is calculated by dividing its MIC when it is used in combination by its MIC when used alone. FIC indices ≤0.5, 0.5 < x ≤ 4 and >4 indicate synergy, additivity and antagonism, respectively.

P. aeruginosa PAO1 = format: cell-based, Pseudomonas aeruginosa; conditions: for MIC: Pseudomonas aeruginosa, PAO1, 18 h, read-out: MIC alone
Experimental: as §1

E. coli ATCC 25922 = format: cell-based, Escherichia coli; design: key to FIC index antibiotic + GCol / FIC index antibiotic + GPMB: sum of FICs; ≤0.5 synergy, 0.5–4 additivity, >4 antagonism; conditions: for MIC: Escherichia coli, ATCC25922, 18 h, read-out: MIC alone
Experimental: as §1

[1] = agent alone, one value per checkerboard plate

Compound	Absolute MIC of antibiotic at 2 μg/mL GCol (A. baumannii ATCC 17978) [µg/mL]	Absolute MIC of antibiotic at 2 μg/mL GPMB (A. baumannii ATCC 17978) [µg/mL]	Absolute MIC of antibiotic at 4 μg/mL GCol (P. aeruginosa PAO1) [µg/mL]	Absolute MIC of antibiotic at 4 μg/mL GPMB (P. aeruginosa PAO1) [µg/mL]	Absolute MIC of antibiotic at 2 μg/mL GCol (E. coli ATCC 25922) [µg/mL]	Absolute MIC of antibiotic at 2 μg/mL GPMB (E. coli ATCC 25922) [µg/mL]	MIC (A. baumannii ATCC 17978; [1]) [µg/mL]	MIC (P. aeruginosa PAO1; [1]) [µg/mL]	MIC (E. coli ATCC 25922; [1]) [µg/mL]	FIC index antibiotic + GPMB (A. baumannii ATCC 17978)	Fold-potentiation of antibiotic (A. baumannii ATCC 17978; at 2 μg/mL GCol)	Fold-potentiation of antibiotic (A. baumannii ATCC 17978; at 2 μg/mL GPMB)	Fold-potentiation of antibiotic (P. aeruginosa PAO1; at 4 μg/mL GCol)	Fold-potentiation of antibiotic (P. aeruginosa PAO1; at 4 μg/mL GPMB)	FIC index antibiotic + GCol (E. coli ATCC 25922)	FIC index antibiotic + GPMB (E. coli ATCC 25922)	Fold-potentiation of antibiotic (E. coli ATCC 25922; at 2 μg/mL GCol)	Fold-potentiation of antibiotic (E. coli ATCC 25922; at 2 μg/mL GPMB)	further results
CN[C@H](CC(C)C)C(=O)N[C@H]1C(=O)N[C@@H](CC(N)=O)C(=O)N[C@H]2C(=O)N[C@H]3C(=O)N[C@H](C(=O)N[C@H](C(=O)O)c4cc(O)cc(O)c4-c4cc3ccc4O)[C@H](O)c3ccc(c(Cl)c3)Oc3cc2cc(c3O[C@@H]2O[C@H](CO)[C@@H](O)[C@H](O)[C@H]2O[C@H]2C[C@](C)(N)[C@H](O)[C@H](C)O2)Oc2ccc(cc2Cl)[C@H]1O [Vancomycin]	64	16	8	2	16	8				0.188	2	8	32	128	0.25	0.313	8	16	MIC (A. baumannii ATCC 17978): 128 µg/mL; MIC (P. aeruginosa PAO1): 256 µg/mL; MIC (E. coli ATCC 25922): 128 µg/mL
C=C[C@]1(C)C[C@@H](OC(=O)CO)[C@]2(C)[C@H](C)CC[C@]3(CCC(=O)[C@H]32)[C@@H](C)[C@@H]1O [Pleuromutilin]	32	2	256	32	0.25	0.125	512	1020	64	0.129	16	256	4	32	0.066	0.035	256	512	
CC(=O)NC[C@H]1CN(c2ccc(N3CCOCC3)c(F)c2)C(=O)O1 [Linezolid]	128	64	128	32	16	8	256	1020	128	0.375	2	4	8	32	0.25	0.25	8	16	
O=C(N[C@H](CO)[C@H](O)c1ccc([N+](=O)[O-])cc1)C(Cl)Cl [Chloramphenicol]	64	32	4	2	0.5	0.5	64	32	2	0.563	1	2	8	16	0.375	0.5	4	4	
CCC[C@@H]1C[C@@H](C(=O)N[C@@H]([C@H]2O[C@H](SC)[C@H](O)[C@@H](O)[C@H]2O)[C@H](C)Cl)N(C)C1 [Clindamycin]	512	64	8	8	4	8	1020	1020	64	0.375	2	16	128	256	0.125	0.313	16	16	FIC index antibiotic + GPMB (P. aeruginosa PAO1): 0.254; MIC alone (P. aeruginosa PAO1; [1]): 2048 µg/mL; MIC alone (E. coli ATCC 25922; [1]): 128 µg/mL

The next lines start with results.

Absolute MIC of antibiotic at 2 μg/mL GCol (A. baumannii ATCC 17978) [µg/mL]	Absolute MIC of antibiotic at 2 μg/mL GPMB (A. baumannii ATCC 17978) [µg/mL]	Absolute MIC of antibiotic at 4 μg/mL GCol (P. aeruginosa PAO1) [µg/mL]	Absolute MIC of antibiotic at 4 μg/mL GPMB (P. aeruginosa PAO1) [µg/mL]	Absolute MIC of antibiotic at 2 μg/mL GCol (E. coli ATCC 25922) [µg/mL]	Absolute MIC of antibiotic at 2 μg/mL GPMB (E. coli ATCC 25922) [µg/mL]	MIC (A. baumannii ATCC 17978; [1]) [µg/mL]	MIC (P. aeruginosa PAO1; [1]) [µg/mL]	MIC (E. coli ATCC 25922; [1]) [µg/mL]	Compound	FIC index antibiotic + GPMB (A. baumannii ATCC 17978)	Fold-potentiation of antibiotic (A. baumannii ATCC 17978; at 2 μg/mL GCol)	Fold-potentiation of antibiotic (A. baumannii ATCC 17978; at 2 μg/mL GPMB)	Fold-potentiation of antibiotic (P. aeruginosa PAO1; at 4 μg/mL GCol)	Fold-potentiation of antibiotic (P. aeruginosa PAO1; at 4 μg/mL GPMB)	FIC index antibiotic + GCol (E. coli ATCC 25922)	FIC index antibiotic + GPMB (E. coli ATCC 25922)	Fold-potentiation of antibiotic (E. coli ATCC 25922; at 2 μg/mL GCol)	Fold-potentiation of antibiotic (E. coli ATCC 25922; at 2 μg/mL GPMB)	further results
64	64	1	1	0.125	0.063	64	4	2	CCN1CCN(C(=O)N[C@@H](C(=O)N[C@@H]2C(=O)N3[C@@H]2SC(C)(C)[C@@H]3C(=O)O)c2ccccc2)C(=O)C1=O [Piperacillin]	0.375	1	1	4	4	0.188	0.281	16	32	
0.125	0.063	1	0.5			0.125	8		C[C@H]1c2cccc(O)c2C(=O)C2=C(O)[C@]3(O)C(=O)C(C(N)=O)=C(O)[C@@H](N(C)C)[C@@H]3[C@@H](O)[C@@H]21 [Doxycycline]										MIC alone (A. baumannii ATCC 17978; [1]): 0.063 µg/mL
1	2	2	2	1	1	1	2	2	NC[C@H]1O[C@H](O[C@H]2[C@H](O)[C@@H](O[C@H]3O[C@H](CO)[C@@H](O)[C@H](N)[C@H]3O)[C@H](N)C[C@@H]2N)[C@H](N)C[C@@H]1O [Tobramycin]	1	1	1	1	1	0.516	1.031	2	1	FIC index antibiotic + GPMB (P. aeruginosa PAO1): 1.016
0.063	0.063			0.008	0.004	0.063	1	0.016	COc1c(N2C[C@@H]3CCCN[C@@H]3C2)c(F)cc2c(=O)c(C(=O)O)cn(C3CC3)c12 [Moxifloxacin]										
0.125	0.063	0.0625	0.03125	0.008	0.032	0.125	0.5		C[C@H]1COc2c(N3CCN(C)CC3)c(F)cc3c(=O)c(C(=O)O)cn1c23 [Levofloxacin]	1	1	1	8	8	0.531	0.563	2	2	MIC alone (A. baumannii ATCC 17978; [1]): 0.063 µg/mL; FIC index antibiotic + GPMB (P. aeruginosa PAO1): 0.375
0.125	0.063	0.5	0.5	0.25	0.125	0.125	16	1	CN(C)c1ccc(O)c2c1C[C@H]1C[C@H]3[C@H](N(C)C)C(O)=C(C(N)=O)C(=O)[C@@]3(O)C(O)=C1C2=O [Minocycline]	0.5	1	4	32	32	0.281	0.25	4	8	MIC alone (A. baumannii ATCC 17978; [1]): 0.25 µg/mL
